Source: paper PMC11277489, “Novel Piperazine Derivatives of Vindoline as Anticancer Agents” (International Journal of Molecular Sciences, 2024)
Where two headings read alike, the source gives them in different places.

How the values were obtained:
Assay type in all cases: cell-based
[1] = test system: OVCAR-4; test: NCI60 five-dose screen, Ovarian Cancer; settings: Homo sapiens
[2] = test system: HCT-116; test: NCI60 five-dose screen, Colon Cancer; settings: Homo sapiens
[3] = test system: SF-268; test: NCI60 five-dose screen, CNS Cancer; settings: Homo sapiens
[4] = test system: U251; test: NCI60 five-dose screen, CNS Cancer; settings: Homo sapiens, U-251
[5] = test system: PC-3; test: NCI60 five-dose screen, Prostate Cancer; settings: Homo sapiens
[6] = test system: MDA-MB231ATCC; test: NCI60 five-dose screen, Breast Cancer; settings: Homo sapiens, MDA-MB-231
[7] = test system: M14; test: NCI60 five-dose screen, Melanoma; settings: Homo sapiens
[8] = test system: SK-MEL-28; test: NCI60 five-dose screen, Melanoma; settings: Homo sapiens
[9] = test system: SNB-19; test: NCI60 five-dose screen, CNS Cancer; settings: Homo sapiens
[10] = test system: UACC-62; test: NCI60 five-dose screen, Melanoma; settings: Homo sapiens
[11] = test system: HT29; test: NCI60 five-dose screen, Colon Cancer; settings: Homo sapiens, HT-29
[12] = test system: MOLT-4; test: NCI60 five-dose screen, Leukemia; settings: Homo sapiens
[13] = test system: UO-31; test: NCI60 five-dose screen, Renal Cancer; settings: Homo sapiens
[14] = test system: HS 578T; test: NCI60 five-dose screen, Breast Cancer; settings: Homo sapiens
[15] = test system: SK-MEL-2; test: NCI60 five-dose screen, Melanoma; settings: Homo sapiens
[16] = test system: HCT-15; test: NCI60 five-dose screen, Colon Cancer; settings: Homo sapiens
[17] = test system: SR; test: NCI60 five-dose screen, Leukemia; settings: Homo sapiens
[18] = test system: HOP-62; test: NCI60 five-dose screen, Non-small Cell Lung Cancer; settings: Homo sapiens
[19] = test system: UACC-257; test: NCI60 five-dose screen, Melanoma; settings: Homo sapiens
[20] = test system: MDA-MB-435; test: NCI60 five-dose screen, Melanoma; settings: Homo sapiens
[21] = test system: A549/ATCC; test: NCI60 five-dose screen, Non-small Cell Lung Cancer; settings: Homo sapiens
[22] = test system: 60 human tumor cell lines (NCI60); test: NCI60 five-dose screen, whole panel and sub-panel means
[23] = test system: SK-MEL-5; test: NCI60 five-dose screen, Melanoma; settings: Homo sapiens
[24] = test system: SF-539; test: NCI60 five-dose screen, CNS Cancer; settings: Homo sapiens
[25] = test system: RPMI-8226; test: NCI60 five-dose screen, Leukemia; settings: Homo sapiens
[26] = test system: LOX IMVI; test: NCI60 five-dose screen, Melanoma; settings: Homo sapiens
[27] = test system: OVCAR-8; test: NCI60 five-dose screen, Ovarian Cancer; settings: Homo sapiens
[28] = test system: MDA-MB-468; test: NCI60 five-dose screen, Breast Cancer; settings: Homo sapiens
[29] = test system: K-562; test: NCI60 five-dose screen, Leukemia; settings: Homo sapiens, K562
[30] = test system: EKVX; test: NCI60 five-dose screen, Non-small Cell Lung Cancer; settings: Homo sapiens
[31] = test system: NCI-H322M; test: NCI60 five-dose screen, Non-small Cell Lung Cancer; settings: Homo sapiens
[32] = test system: BT-549; test: NCI60 five-dose screen, Breast Cancer; settings: Homo sapiens
[33] = test system: SF-295; test: NCI60 five-dose screen, CNS Cancer; settings: Homo sapiens

`CC[C@]12C=CCN3CC[C@@]4(c5ccc(OC)cc5N(C)[C@H]4[C@@](O)(C(=O)OC)[C@@H]1OC(=O)CCCN1CCN(C(c4ccc(F)cc4)c4ccc(F)cc4)CC1)[C@@H]32` [Compound 25] was tested, and the GI50 ([1]; OVCAR-4) was 1.95 µM, the GI50 ([2]; HCT-116) was 1.78 µM and the GI50 ([3]; SF-268) was 1.7 µM. For the same molecule, the GI50 [4] was 1.55 µM, the GI50 ([5]; PC-3) was 1.51 µM and the GI50 [6] was 1.58 µM. It also gave a GI50 ([7]; M14) of 1.91 µM, a GI50 ([8]; SK-MEL-28) of 1.74 µM and a GI50 ([9]; SNB-19) of 1.66 µM. The GI50 ([10]; UACC-62) was 1.78 µM, the GI50 [11] was 1.91 µM and the GI50 ([12]; MOLT-4) was 1.45 µM. For the same molecule, the GI50 ([13]; UO-31) was 1.66 µM, the GI50 ([14]; Hs-578T) was 1.78 µM and the GI50 ([15]; SK-MEL-2) was 2.4 µM. The GI50 ([16]; HCT-15) was 1.7 µM, the GI50 [17] was 1.7 µM and the GI50 ([18]; HOP-62) was 1.62 µM. For the same molecule, the GI50 ([19]; UACC-257) was 1.74 µM, the GI50 ([20]; MDA-MB-435) was 1.66 µM and the GI50 ([21]; A549) was 2.63 µM. For the same molecule, the GI50 ([22]; Homo sapiens, 60 cell, read-out: GI50 Mean, mean over all 60 cell lines) was 1.85 µM, the GI50 ([22]; Homo sapiens, on almost all cell lines, five-dose screen) was < 2 µM and the GI50 ([22]; Homo sapiens, read-out: GI50 Mean, mean over Breast Cancer panel) was 1.67 µM. For the same molecule, the GI50 ([22]; Homo sapiens, read-out: GI50 Mean, mean over CNS Cancer panel) was 2.21 µM, the GI50 ([22]; Homo sapiens, read-out: GI50 Mean, mean over Colon Cancer panel) was 1.73 µM and the GI50 ([22]; Homo sapiens, read-out: GI50 Mean, mean over Leukemia panel) was 1.76 µM. It also gave a GI50 ([22]; Homo sapiens, read-out: GI50 Mean, mean over Melanoma panel) of 1.78 µM, a GI50 ([22]; Homo sapiens, read-out: GI50 Mean, mean over Non-small Cell Lung Cancer panel) of 1.85 µM and a GI50 ([22]; Homo sapiens, read-out: GI50 Mean, mean over Ovarian Cancer panel) of 1.73 µM. It also gave a GI50 ([22]; Homo sapiens, read-out: GI50 Mean, mean over Prostate Cancer panel) of 1.65 µM, a GI50 ([22]; Homo sapiens, read-out: GI50 Mean, mean over Renal Cancer panel) of 2.18 µM and a GI50 ([23]; SK-MEL-5) of 1.55 µM. For the same molecule, the GI50 ([24]; SF-539) was 1.66 µM, the GI50 ([25]; RPMI-8226) was 1.95 µM and the GI50 [26] was 1.74 µM. The GI50 ([27]; OVCAR-8) was 2.09 µM, the GI50 ([28]; MDA-MB-468) was 1.51 µM and the GI50 [29] was 1.91 µM. For the same molecule, the GI50 [30] was 1.7 µM, the GI50 [31] was 1.95 µM and the GI50 ([32]; BT-549) was 1.78 µM. It also gave a GI50 ([33]; SF-295) of 1.7 µM.
`CC[C@]12C=CCN3CC[C@@]4(c5ccc(OC)cc5N(C)[C@H]4[C@@](O)(C(=O)OC)[C@@H]1OC(=O)CCC(=O)N1CCN(C(c4ccc(F)cc4)c4ccc(F)cc4)CC1)[C@@H]32` [Compound 31] gave a GI50 ([1]; OVCAR-4, Ovarian Cancer, five-dose screen, read-out: GI50) of 1.62 µM, a GI50 ([2]; HCT-116, Colon Cancer, five-dose screen, read-out: GI50) of 2.72 µM and a GI50 ([3]; SF-268, CNS Cancer, five-dose screen, read-out: GI50) of 2.98 µM. For the same molecule, the GI50 ([4]; U251, CNS Cancer, five-dose screen, read-out: GI50) was 2.78 µM, the GI50 ([5]; PC-3, Prostate Cancer, five-dose screen, read-out: GI50) was 1.86 µM and the GI50 ([6]; MDA-MB231ATCC, Breast Cancer, five-dose screen, read-out: GI50) was 3.02 µM. It also gave a GI50 ([7]; M14, Melanoma, five-dose screen, read-out: GI50) of 3.55 µM, a GI50 ([8]; SK-MEL-28, Melanoma, five-dose screen, read-out: GI50) of 3.26 µM and a GI50 ([9]; SNB-19, CNS Cancer, five-dose screen, read-out: GI50) of 3.58 µM. For the same molecule, the GI50 ([10]; UACC-62, Melanoma, five-dose screen, read-out: GI50) was 1.92 µM, the GI50 ([11]; HT29, Colon Cancer, five-dose screen, read-out: GI50) was 1.76 µM and the GI50 ([12]; MOLT-4, Leukemia, five-dose screen, read-out: GI50) was 1.35 µM. The GI50 ([13]; UO-31, Renal Cancer, five-dose screen, read-out: GI50) was 2.32 µM, the GI50 ([14]; HS 578T, Breast Cancer, five-dose screen, read-out: GI50) was 1.74 µM and the GI50 ([15]; SK-MEL-2, Melanoma, five-dose screen, read-out: GI50) was 1.62 µM. The GI50 ([16]; HCT-15, Colon Cancer, five-dose screen, read-out: GI50) was 2.45 µM, the GI50 ([17]; Leukemia, five-dose screen, read-out: GI50) was 1.63 µM and the GI50 ([18]; HOP-62, Non-small Cell Lung Cancer, five-dose screen, read-out: GI50) was 2.55 µM. It also gave a GI50 ([19]; UACC-257, Melanoma, five-dose screen, read-out: GI50) of 2.7 µM, a GI50 ([20]; MDA-MB-435, Melanoma, five-dose screen, read-out: GI50) of 2.7 µM and a GI50 ([21]; A549/ATCC, Non-small Cell Lung Cancer, five-dose screen, read-out: GI50) of 2.67 µM. For the same molecule, the GI50 ([22]; Homo sapiens, 60 cell, mean over all 60 cell lines, read-out: GI50 Mean) was < 4 µM, the GI50 ([22]; Homo sapiens, mean over Breast Cancer panel, read-out: GI50 Mean) was 2 µM and the GI50 ([22]; Homo sapiens, mean over CNS Cancer panel, read-out: GI50 Mean) was 2.6 µM. For the same molecule, the GI50 ([22]; Homo sapiens, mean over Colon Cancer panel, read-out: GI50 Mean) was 2.23 µM, the GI50 ([22]; Homo sapiens, mean over Leukemia panel, read-out: GI50 Mean) was 1.89 µM and the GI50 ([22]; Homo sapiens, mean over Melanoma panel, read-out: GI50 Mean) was 2.4 µM. It also gave a GI50 ([22]; Homo sapiens, mean over Non-small Cell Lung Cancer panel, read-out: GI50 Mean) of 2.59 µM, a GI50 ([22]; Homo sapiens, mean over Ovarian Cancer panel, read-out: GI50 Mean) of 2.15 µM and a GI50 ([22]; Homo sapiens, mean over Prostate Cancer panel, read-out: GI50 Mean) of 2.27 µM. For the same molecule, the GI50 ([22]; Homo sapiens, mean over Renal Cancer panel, read-out: GI50 Mean) was 2.33 µM, the GI50 ([22]; mean over all 60 cell lines, read-out: GI50 Mean) was 2.29 µM and the GI50 ([23]; SK-MEL-5, Melanoma, five-dose screen, read-out: GI50) was 1.84 µM. The GI50 ([24]; SF-539, CNS Cancer, five-dose screen, read-out: GI50) was 2.02 µM, the GI50 ([25]; RPMI-8226, Leukemia, five-dose screen, read-out: GI50) was 1.42 µM and the GI50 ([26]; Melanoma, five-dose screen, read-out: GI50) was 1.8 µM. The GI50 ([27]; OVCAR-8, Ovarian Cancer, five-dose screen, read-out: GI50) was 3.18 µM, the GI50 ([28]; MDA-MB-468, Breast Cancer, five-dose screen, read-out: GI50) was 1.2 µM and the GI50 ([29]; K-562, Leukemia, five-dose screen, read-out: GI50) was 2.92 µM. For the same molecule, the GI50 ([31]; Non-small Cell Lung Cancer, five-dose screen, read-out: GI50) was 4.99 µM, the GI50 ([32]; BT-549, Breast Cancer, five-dose screen, read-out: GI50) was 1.81 µM and the GI50 ([33]; SF-295, CNS Cancer, five-dose screen, read-out: GI50) was 2.11 µM.
